Reference: patent US20220325242A1, “IDH2 INHIBITION FOR PRODUCING T-CELLS AND B-CELLS WITH A MEMORY PHENOTYPE” (Universite de Lausanne, priority 2019, published 2022)

Assays:
OT1 CD8+ T-cells = experiment: Flow cytometry of surface activation and memory markers on in vitro cultured OT1 CD8+ T-cells; assay type: cell-based, mouse; settings: 5 μM inhibitor day 0-3, flow cytometry on day 3 and 7
Method: Example 2. In vitro culture of splenocytes comprising CD8+ T-cells. OT1 splenocytes (as described in Example 1) were cultured for 3 days at a concentration of 10^6 cells per mL in RPMI medium (Gibco 61870-01) supplemented with 10% FCS, (Gibco 10270-106), 1% Penicillin/Streptomycin (P/S; Gibco 15070-063), 0.1% 13-mercaptoethanol, 1% HEPES (Gibco 15630-080), 1× Non-essential amino acids (Gibco 11140-035), 1% L-glutamine (Gibco 25030-081), 1 mM Sodium Pyruvate (Gibco 11360-039), 100 U/m1 hIL-2 (Glaxo-IMB) and 1 μg/ml ovalbumin N4 peptide (SIINFEKL). To evaluate the effects of IDH2 inhibition on T-cell differentiation, 5 μM of a small molecule IDH2 inhibitor (AG221 or AGI6780) or a DMSO solvent control was added during this 3-day culture period. At day 3, a fraction of the splenocytes was collected and the remaining cells were cultured for 4 additional days with 100 U/ml hIL-2 and 10 ng/ml hIL-7 (Peprotech 200-07) supplementation after washing out the inhibitors and the ovalbumine N4 peptide (FIG. 1). At day 3 and day 7, the activation and differentiation state of CD8+ T-cells was determined by gene expression analysis, flow cytometry and extracellular metabolic flux analyses (see Example 3).
Cells were incubated in a live/dead stain (Fixable aqua dead cell stain kit, Invitrogen) followed by an incubation with different antibody panels.
Antibody panel to determine the differentiation and activation state of in vitro cultured T-cells (see Examples 2 and 4): anti-CD8-PE-texas-Red, anti-CD62L-FITC, anti-CD127-PE, anti-CD27-PerCP-Cy5.5, anti-CD71-PE-Cy7, anti-CD44-APC-Cy7, anti-CD98-APC, anti-CD25-Pacific blue (BD Pharmingen and eBioscience, San Diego, Calif., USA). All those antigens are surface molecules. Cells were gated on living single CD8+ cells before analysis of activation and memory marker expression. For the unstained control, cells were stained with the live/dead stain and anti-CD8-PE-texas-Red.
Cells were acquired on LSR-II flow cytometers from the flow cytometry facility of UNIL and data were analyzed with FlowJo™ 10 software. Antibodies were purchased from BD Phamingen (San Diego, Calif., USA), eBioscience (San Diego, Calif., USA, and Biolegend (San Diego, Calif., USA).

[1] = tested on: accessible chromatin regions in OT1 T-cells; experiment: ATAC-seq of OT1 T-cells; assay type: cell-based, mouse; settings: day 7, 5 μM day 0-3, compared to DMSO-treated T-cells
Method: Methods: OT1 splenocytes were activated and cultured with 5 μM AG221 or DMSO as described in Example 2. After 3 days, the cells were washed and the IDH2 inhibitor was washed out as well. The cells were then cultured for an additional 4 days in the absence of AG221. At day 7, the cells were collected and washed once with PBS. 50′000 cells were collected for ATAC-seq while the remaining cell pellet was lysed in extraction buffer (20 mM Tris HCl, 150 mM NaCl, 1% Triton X-100, 10% glycerol, 5 mM EDTA) supplemented with Complete Mini protease inhibitor (Roche) for wester blotting.
For ATAC-seq cells were transposed with the Illumina Tagment DNA Enzyme and Buffer Small Kit according to the protocol described by Buenrostro et al. (Curr Protoc Mol Biol. 2015 Jan 5;109:21.29.1-21.29.9.). Fragments were sequenced on an Illumina NextSeq 500 instrument.

human CD8+ T-cells = experiment: Cytokine expression after PMA and Ionomycin restimulation of human CBMC-derived T-cells; assay type: cell-based; settings: day 11 cells, inhibitors washed out, PMA and ionomycin 4 hours
Method: Methods: Mononuclear Cells were isolated from fresh umbilical cord blood on a Percoll Gradient (CBMCs). 10^4 CBMC's were seeded per well in a round bottom 96-well plate in RPMI with 10% human serum, and activated with (magnetic) αCD3/CD28 at a 1:2 cell:bead ratio and 300 U/ml rhIL-2, in the presence of 5 μM AG221 or DMSO, or 1 μM MK2206 (AKT inhibitor). After 11 days of culture, CD62L expression was analyzed by flow cytometry on a fraction of the cells (FIG. 15A). The other cells were washed 2 times and placed in a magnet to remove the inhibitors and the αCD3/CD28 beads. The cells were then rested for 4 hours before restimulating them for 4 hours with 1 ng/ml Phorbol 12-Myristate 13-Acetate (PMA, a PKC activator) and 50 μg/ml Ionomycin (a Ca^2+ ionophore, activating NF-KB and NFAT) in the presence of 50 μ/ml golgi inhibitor (Brefeldin A, BFA), allowing for the measurement of intracellular accumulation of different cytokines by flow cytometry.

Q: With `CC(C)(O)CNc1nc(Nc2ccnc(C(F)(F)F)c2)nc(-c2cccc(C(F)(F)F)n2)n1` [AG221, 2-methyl-1-[[4-[6-(trifluoromethyl)pyridin-2-yl]-6-[[2-(trifluoromethyl)pyridin-4-yl]amino]-1,3,5-triazin-2-yl]amino]propan-2-ol] as the molecule, how does the “CD62L surface expression compared to DMSO” value (OT1 CD8+ T-cells) read?
A: Its value is “increased”.

Q: And the “other surface markers (CD25, CD44, CD71, CD98, CD27, CD127) compared to DMSO” value (OT1 CD8+ T-cells)?
A: Its value is “generally unchanged”.

Q: What about the “more accessible regions in the DNA (ATAC-seq)” value [1] of the same molecule?
A: The value was 1633.

Q: What about the “TNF expression upon restimulation” value (human CD8+ T-cells) of the same molecule?
A: The value was “unaffected”.

Q: And the “expression of effector cytokine IFNγ upon restimulation” value (human CD8+ T-cells)?
A: The value was “significant upregulation”.

Q: And the “production of IL-2 upon restimulation” value (human CD8+ T-cells)?
A: The value was “unaltered”.
